In US20130331331A1, “HEXAPEPTIDE WITH IMPROVED ACTIVITY IN THE REPAIR OF CELLULAR DNA OF DERMAL CELLS” (priority 2011, published 2013):
Non-standard residues stand in square brackets, D forms with d. Nle = CCCC[C@H](N)C(=O)O

Key:
[1] = system: human melanocytes; test: DNA damage as measured by 8-oxo-dG immunofluorescence; type: cell-based
Description: DNA damage of cultured melanocytes following UV irradiation leads to consistent levels of photoproducts such as 8-oxo-dG. It is well established in the art (dermal carcinogenesis) that 8-oxodG is a major form of UV-induced oxidative DNA damage, which results from the generation of reactive oxygen species (ROS). The induction of 8-oxodG by 8-oxo-dGTP can be inhibited by pyrophosphohydrolases (8-[…]) that convert it to 8-oxo-dGMP. […] Immunofluorescence was detected using a microscope with FITC filters. Data were expressed as the mean fluorescence intensity±S.E., determined using the densitometry values from 6-8 randomly obtained images, using the computer assisted program Alpha Inotech Imaging System and the AlphaEase FC StandAlone Software.

[2] = system: Melanocytes; test: DNA damage as measured by cyclobutane pyrimidine dimers (CPD), flow cytometry; type: cell-based, human; conditions: 48 h after 105 mJ/cm^2 UV
Method: Cyclobutane pyrimidine dimers (CPD), the major determinant of UV-induced DNA photoproducts, were detected using flow cytometry analysis.
Melanocytes were pretreated with 0 (control), 10 nM α-MSH or 1 nM NDP-MSH or 1 nM CUV9900 for 4 days prior to, and 2 days after exposure to 105 mJ/cm^2 UV, harvested 48 hours post irradiation, fixated with 70% ethanol, the DNA denatured with 1N HCl/0.2 mg/ml pepsin, then renaturated with sodium tetraborate. Melanocytes were blocked and incubated overnight at 4° C. with the anti-CPD antibody (diluted 1:500; TDM-2 clone), then with goat anti-mouse IgG Alexa Fluor 488 (Invitrogen, Carlsbad Calif.) for 1 hour, and finally resuspended in PBS containing RNase A and propidium iodide. Melanocytes were analyzed on a Coulter EPICS XL flow cytometer (Beckman Coulter) using a 488 nm argon ion laser A 525 band pass filter was used for the Alexa fluor 488 and a 620 band pass filter for the propidium iodide.

[3] = system: melanocytes strain 1513c; test: cAMP levels, radioimmunoassay, strain 1513c; type: cell-based, human; conditions: 45 min, 0.1 mM IBMX
Method: Dose-response experiments were carried out on three melanocytic strains, namely strains 1513c, 1505b and 105c melanocytes were treated with 1 pM-10 nM CUV9900 or NDP-MSH, or with 0.1-10 nM MSH for 45 minutes in the presence of 0.1 mM isobutyl methylxanthine (IBMX). The results obtained from strain 1513c are shown in FIG. 3, the results obtained from strain 1505b are shown in FIG. 5a and the results obtained from strain 105c are shown in FIG. 5b. The strains 1505b and 1513c were obtained from the same human adult while the strain 105c was obtained from another human adult. Cyclic AMP is the second messenger for the melanocortin-1 receptor, and assessment is usually performed indicating cellular activity reflective of melanogenesis. Cyclic AMP levels were determined using ^125I-labeled radioimmunoassay kit (Perkin Elmer, Waltham, Mass.), in human melanocytes that were treated with 0 (control), 0.1-10.0 nM α-MSH, or 0.001-10 nM NDP-MSH or 0.001-10.0 nM CUV 9900 for […]. in the presence of 0.1 mM IBMX, a phosphodiesterase inhibitor to prevent cAMP degradation. Triplicate wells were included in each group, and duplicate samples from each well were assayed for cAMP levels. Each data point is the mean percent of control of 6 determinations/group±S.E.

## Ac-Nle-Glu His-D-Phe-Arg-Trp-NH2 (Ac-[Nle]EH[dF]RW-NH2; SMILES CCCC[C@H](NC(C)=O)C(=O)N[C@@H](CCC(=O)O)C(=O)N[C@@H](Cc1c[nH]cn1)C(=O)N[C@H](Cc1ccccc1)C(=O)N[C@@H](CCCNC(=N)N)C(=O)N[C@@H](Cc1c[nH]c2ccccc12)C(N)=O) [CUV9900, hexapeptide alpha-MSH analogue]
[1]
  less 8-oxo-dG cellular DNA damage in comparison with alpha-MSH: 33%
[2]
  CPD cellular DNA damage, comparison in words: less CPD cellular DNA damage in comparison with and NDP-MSH and slightly higher values than alpha-MSH
[3]; 0.1 nM
  cAMP, potency comparison: more potent than NDP-MSH
[3]; 10 nM
  maximal level of cAMP, comparison: higher maximal level of cAMP than MSH
